Legend:
[1] = biological target: Serine/threonine-protein kinase 33 (Homo sapiens, UniProt Q9BYT3); assay: Selectivity interaction (Enzymatic assay) EUB0000608a STK33
[2] = biological target: Cyclin-G-associated kinase (Homo sapiens, UniProt O14976); assay: Selectivity interaction (Enzymatic assay) EUB0000608a GAK
[3] = biological target: Serine/threonine-protein kinase PLK1 (Homo sapiens, UniProt P53350); assay: Selectivity interaction (Enzymatic assay) EUB0000608a PLK1
[4] = biological target: Serine/threonine-protein kinase PLK3 (Homo sapiens, UniProt Q9H4B4); assay: Selectivity interaction (Enzymatic assay) EUB0000608a PLK3
[5] = biological target: Serine/threonine-protein kinase PLK4 (Homo sapiens, UniProt O00444); assay: Selectivity interaction (Enzymatic assay) EUB0000608a PLK4
[6] = biological target: T1, Sodium/nucleoside cotransporter 2 (Homo sapiens, UniProt O43868); assay: Selectivity interaction (Enzymatic assay (PanLabs Profiling)) EUB0000715a SLC28A2
T1 sequence (O43868 whole entry): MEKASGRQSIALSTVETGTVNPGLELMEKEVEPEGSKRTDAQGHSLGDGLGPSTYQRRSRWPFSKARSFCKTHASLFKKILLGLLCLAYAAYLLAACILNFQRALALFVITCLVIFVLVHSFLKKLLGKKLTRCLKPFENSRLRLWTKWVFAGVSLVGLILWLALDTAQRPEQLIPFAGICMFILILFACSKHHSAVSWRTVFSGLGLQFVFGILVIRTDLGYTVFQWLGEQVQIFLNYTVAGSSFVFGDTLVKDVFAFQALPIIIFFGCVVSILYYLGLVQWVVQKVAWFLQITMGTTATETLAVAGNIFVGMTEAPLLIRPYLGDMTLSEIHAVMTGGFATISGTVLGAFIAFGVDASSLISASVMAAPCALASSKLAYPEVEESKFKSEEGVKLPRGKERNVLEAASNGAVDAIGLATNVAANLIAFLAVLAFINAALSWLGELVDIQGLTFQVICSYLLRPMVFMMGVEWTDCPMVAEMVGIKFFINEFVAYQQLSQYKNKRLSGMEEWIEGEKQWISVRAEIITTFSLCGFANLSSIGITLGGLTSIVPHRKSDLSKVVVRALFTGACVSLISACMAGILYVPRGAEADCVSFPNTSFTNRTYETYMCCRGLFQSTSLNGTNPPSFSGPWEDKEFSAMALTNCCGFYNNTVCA

[7] = biological target: Epidermal growth factor receptor (Homo sapiens, UniProt P00533); assay: Selectivity interaction (KinomeScan (DiscoverX)) EUB0000715a EGFR; conditions: at 100 nM
[8] = biological target: T2, Tyrosine-protein kinase JAK3 (Homo sapiens) (UniProt P52333); assay: Selectivity interaction (KinomeScan (DiscoverX)) EUB0000715a JAK3; conditions: at 100 nM
T2 sequence (whole entry): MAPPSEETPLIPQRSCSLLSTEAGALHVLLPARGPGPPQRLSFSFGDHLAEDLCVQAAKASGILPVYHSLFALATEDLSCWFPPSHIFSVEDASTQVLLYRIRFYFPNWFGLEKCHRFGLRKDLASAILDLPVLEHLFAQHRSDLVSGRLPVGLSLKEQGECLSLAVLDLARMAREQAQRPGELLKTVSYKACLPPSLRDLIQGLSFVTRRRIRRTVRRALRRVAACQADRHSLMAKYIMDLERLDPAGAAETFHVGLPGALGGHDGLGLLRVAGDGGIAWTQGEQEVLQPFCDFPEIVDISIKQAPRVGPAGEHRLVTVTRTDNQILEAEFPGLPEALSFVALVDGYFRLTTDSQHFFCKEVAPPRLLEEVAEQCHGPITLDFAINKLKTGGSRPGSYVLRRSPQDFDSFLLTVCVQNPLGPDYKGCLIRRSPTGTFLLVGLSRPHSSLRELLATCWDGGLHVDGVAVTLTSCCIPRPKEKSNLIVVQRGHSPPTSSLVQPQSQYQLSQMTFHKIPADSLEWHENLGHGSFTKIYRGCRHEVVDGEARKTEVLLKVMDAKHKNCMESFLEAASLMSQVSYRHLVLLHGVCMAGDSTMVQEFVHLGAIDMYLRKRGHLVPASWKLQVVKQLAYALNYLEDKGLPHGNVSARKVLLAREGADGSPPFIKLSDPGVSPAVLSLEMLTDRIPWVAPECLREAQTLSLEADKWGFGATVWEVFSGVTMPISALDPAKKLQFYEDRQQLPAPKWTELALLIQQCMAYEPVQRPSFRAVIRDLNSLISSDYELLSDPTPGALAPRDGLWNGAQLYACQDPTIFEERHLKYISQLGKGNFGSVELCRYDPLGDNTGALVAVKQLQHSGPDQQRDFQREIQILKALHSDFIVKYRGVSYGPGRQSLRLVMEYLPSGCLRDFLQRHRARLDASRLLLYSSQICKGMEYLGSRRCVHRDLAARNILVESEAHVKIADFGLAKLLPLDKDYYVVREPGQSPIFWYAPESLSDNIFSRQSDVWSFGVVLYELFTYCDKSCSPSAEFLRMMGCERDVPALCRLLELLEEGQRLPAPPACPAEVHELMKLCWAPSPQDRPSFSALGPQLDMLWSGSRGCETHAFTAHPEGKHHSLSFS

[9] = biological target: T3, Mitogen-activated protein kinase kinase kinase 13 (Homo sapiens) (UniProt O43283); assay: Selectivity interaction (KinomeScan (DiscoverX)) EUB0000715a MAP3K13; conditions: at 100 nM
T3 sequence (whole entry): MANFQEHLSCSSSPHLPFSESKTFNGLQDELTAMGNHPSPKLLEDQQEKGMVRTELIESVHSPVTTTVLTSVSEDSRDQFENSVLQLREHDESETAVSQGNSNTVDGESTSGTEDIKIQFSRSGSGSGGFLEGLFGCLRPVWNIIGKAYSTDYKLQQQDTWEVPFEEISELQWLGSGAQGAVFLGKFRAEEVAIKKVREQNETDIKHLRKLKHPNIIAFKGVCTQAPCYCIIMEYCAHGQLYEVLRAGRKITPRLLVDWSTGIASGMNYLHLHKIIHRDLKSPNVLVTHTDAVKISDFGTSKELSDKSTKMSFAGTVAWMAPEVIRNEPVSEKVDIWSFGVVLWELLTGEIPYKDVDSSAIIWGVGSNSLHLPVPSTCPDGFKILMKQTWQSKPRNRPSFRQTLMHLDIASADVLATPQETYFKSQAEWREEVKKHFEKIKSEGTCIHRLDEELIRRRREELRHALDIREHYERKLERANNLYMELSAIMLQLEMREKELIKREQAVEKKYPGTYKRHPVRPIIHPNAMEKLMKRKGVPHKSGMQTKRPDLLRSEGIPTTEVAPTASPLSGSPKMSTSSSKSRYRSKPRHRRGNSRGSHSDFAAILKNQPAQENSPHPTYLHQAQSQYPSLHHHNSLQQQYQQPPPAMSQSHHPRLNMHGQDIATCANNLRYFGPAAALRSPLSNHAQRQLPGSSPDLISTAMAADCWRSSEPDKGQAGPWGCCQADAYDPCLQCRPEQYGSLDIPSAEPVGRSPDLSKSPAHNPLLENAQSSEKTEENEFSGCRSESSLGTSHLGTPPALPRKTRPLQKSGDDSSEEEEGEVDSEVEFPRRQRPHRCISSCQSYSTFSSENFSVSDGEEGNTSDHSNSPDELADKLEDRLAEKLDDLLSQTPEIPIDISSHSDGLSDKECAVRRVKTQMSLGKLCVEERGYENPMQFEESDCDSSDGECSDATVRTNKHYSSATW

Sequence of Serine/threonine-protein kinase PLK1 (P53350 whole entry): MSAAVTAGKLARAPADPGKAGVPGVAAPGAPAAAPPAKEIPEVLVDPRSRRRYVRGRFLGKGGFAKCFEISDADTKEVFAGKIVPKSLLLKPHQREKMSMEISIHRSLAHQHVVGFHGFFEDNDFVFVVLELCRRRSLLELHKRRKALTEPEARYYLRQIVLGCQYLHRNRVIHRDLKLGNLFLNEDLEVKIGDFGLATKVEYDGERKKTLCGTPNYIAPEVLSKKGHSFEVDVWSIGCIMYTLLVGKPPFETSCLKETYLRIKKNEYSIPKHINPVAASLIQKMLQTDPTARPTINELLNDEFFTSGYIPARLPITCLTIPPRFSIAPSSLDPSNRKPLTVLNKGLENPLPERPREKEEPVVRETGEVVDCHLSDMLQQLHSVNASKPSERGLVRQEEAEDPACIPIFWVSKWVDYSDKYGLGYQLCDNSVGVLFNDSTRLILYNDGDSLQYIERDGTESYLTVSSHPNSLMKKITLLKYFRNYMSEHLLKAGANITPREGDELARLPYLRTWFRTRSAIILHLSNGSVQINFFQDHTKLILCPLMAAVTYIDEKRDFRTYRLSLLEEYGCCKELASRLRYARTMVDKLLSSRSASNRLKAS
Sequence of Serine/threonine-protein kinase PLK4 (O00444 whole entry): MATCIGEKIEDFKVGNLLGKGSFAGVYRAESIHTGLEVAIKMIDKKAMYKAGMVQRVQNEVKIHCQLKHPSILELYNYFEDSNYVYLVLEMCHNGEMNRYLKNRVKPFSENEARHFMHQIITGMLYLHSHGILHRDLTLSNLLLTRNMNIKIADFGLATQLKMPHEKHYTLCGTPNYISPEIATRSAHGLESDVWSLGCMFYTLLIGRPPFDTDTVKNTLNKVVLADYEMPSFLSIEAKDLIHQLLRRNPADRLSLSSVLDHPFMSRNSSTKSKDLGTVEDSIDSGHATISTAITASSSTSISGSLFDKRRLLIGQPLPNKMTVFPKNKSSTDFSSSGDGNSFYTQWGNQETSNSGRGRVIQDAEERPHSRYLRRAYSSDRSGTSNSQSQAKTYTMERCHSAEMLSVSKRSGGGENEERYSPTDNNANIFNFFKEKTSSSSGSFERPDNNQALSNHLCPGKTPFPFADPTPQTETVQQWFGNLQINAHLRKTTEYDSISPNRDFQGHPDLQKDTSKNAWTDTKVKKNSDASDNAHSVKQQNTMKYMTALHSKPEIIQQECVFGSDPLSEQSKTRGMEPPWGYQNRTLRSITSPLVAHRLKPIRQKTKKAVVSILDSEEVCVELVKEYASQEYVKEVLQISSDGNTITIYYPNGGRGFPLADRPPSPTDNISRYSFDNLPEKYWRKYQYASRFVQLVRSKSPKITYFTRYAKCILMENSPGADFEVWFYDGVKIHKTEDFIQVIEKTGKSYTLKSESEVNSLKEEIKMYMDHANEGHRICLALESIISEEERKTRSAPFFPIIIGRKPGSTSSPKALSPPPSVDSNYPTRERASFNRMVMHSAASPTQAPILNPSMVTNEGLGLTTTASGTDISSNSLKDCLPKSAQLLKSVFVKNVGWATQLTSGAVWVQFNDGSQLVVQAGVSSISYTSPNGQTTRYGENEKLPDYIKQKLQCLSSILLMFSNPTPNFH
Sequence of Cyclin-G-associated kinase (O14976 whole entry): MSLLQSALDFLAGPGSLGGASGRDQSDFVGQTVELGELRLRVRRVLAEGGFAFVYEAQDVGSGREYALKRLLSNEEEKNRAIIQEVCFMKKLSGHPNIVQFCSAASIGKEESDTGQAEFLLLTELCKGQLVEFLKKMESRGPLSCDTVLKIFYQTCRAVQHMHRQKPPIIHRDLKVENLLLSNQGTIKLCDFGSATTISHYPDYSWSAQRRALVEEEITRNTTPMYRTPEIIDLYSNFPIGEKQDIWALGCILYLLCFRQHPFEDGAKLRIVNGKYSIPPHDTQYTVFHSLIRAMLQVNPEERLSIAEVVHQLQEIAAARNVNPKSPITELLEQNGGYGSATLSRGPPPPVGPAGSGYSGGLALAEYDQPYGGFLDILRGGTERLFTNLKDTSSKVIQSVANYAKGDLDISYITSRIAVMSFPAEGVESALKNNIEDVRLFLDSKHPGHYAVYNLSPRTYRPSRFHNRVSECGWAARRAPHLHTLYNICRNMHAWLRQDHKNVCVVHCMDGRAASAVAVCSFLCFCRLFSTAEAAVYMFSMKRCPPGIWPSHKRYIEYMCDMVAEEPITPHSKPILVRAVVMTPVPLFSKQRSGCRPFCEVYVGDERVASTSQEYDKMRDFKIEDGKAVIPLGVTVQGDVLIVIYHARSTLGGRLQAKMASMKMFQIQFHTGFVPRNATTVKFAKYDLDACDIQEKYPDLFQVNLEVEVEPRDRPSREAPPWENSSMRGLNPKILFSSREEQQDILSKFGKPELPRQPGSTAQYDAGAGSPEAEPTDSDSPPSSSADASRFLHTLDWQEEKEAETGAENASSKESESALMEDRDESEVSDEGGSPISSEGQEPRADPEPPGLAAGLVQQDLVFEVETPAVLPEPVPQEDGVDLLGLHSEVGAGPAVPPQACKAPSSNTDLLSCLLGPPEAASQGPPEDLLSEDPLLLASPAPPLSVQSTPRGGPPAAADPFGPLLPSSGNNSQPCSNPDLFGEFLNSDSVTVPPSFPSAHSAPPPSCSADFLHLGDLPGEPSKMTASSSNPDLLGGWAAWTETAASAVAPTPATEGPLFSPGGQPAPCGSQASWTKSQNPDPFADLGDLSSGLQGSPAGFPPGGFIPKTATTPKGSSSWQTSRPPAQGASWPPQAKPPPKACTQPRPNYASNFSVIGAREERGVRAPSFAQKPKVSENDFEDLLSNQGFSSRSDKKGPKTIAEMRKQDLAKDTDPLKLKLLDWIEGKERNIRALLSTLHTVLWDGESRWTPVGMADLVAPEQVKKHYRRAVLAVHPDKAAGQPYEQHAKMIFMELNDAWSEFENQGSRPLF
Sequence of Epidermal growth factor receptor (P00533 whole entry): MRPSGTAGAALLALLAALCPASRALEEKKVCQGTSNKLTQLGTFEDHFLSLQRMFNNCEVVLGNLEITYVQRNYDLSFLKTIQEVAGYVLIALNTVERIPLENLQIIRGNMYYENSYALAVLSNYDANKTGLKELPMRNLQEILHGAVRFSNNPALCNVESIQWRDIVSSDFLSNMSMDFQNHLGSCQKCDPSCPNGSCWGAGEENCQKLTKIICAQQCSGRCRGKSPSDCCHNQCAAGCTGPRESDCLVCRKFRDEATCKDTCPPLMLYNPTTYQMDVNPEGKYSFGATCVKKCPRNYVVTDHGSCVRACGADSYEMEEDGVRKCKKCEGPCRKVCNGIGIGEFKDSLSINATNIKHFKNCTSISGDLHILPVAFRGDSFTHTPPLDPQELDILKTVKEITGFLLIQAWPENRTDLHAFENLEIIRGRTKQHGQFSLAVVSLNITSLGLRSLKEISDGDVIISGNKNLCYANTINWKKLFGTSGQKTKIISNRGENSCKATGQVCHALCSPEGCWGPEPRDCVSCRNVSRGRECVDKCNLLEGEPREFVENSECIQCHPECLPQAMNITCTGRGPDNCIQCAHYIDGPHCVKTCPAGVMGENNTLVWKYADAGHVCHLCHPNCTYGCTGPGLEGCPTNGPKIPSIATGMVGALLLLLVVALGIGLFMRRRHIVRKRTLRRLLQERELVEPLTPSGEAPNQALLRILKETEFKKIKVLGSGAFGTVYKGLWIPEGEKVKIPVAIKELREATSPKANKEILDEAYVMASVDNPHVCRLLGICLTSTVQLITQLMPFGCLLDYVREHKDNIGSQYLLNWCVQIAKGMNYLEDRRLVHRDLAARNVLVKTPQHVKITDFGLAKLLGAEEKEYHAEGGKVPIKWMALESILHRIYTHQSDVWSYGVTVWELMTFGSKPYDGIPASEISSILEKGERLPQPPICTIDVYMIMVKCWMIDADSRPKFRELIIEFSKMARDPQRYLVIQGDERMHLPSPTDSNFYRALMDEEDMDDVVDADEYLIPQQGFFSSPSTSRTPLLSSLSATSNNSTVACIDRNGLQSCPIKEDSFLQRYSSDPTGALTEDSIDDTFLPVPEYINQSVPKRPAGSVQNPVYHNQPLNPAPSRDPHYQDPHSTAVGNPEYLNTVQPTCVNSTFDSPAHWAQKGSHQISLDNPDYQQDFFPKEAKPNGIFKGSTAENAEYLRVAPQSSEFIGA
Sequence of Serine/threonine-protein kinase PLK3 (Q9H4B4 whole entry): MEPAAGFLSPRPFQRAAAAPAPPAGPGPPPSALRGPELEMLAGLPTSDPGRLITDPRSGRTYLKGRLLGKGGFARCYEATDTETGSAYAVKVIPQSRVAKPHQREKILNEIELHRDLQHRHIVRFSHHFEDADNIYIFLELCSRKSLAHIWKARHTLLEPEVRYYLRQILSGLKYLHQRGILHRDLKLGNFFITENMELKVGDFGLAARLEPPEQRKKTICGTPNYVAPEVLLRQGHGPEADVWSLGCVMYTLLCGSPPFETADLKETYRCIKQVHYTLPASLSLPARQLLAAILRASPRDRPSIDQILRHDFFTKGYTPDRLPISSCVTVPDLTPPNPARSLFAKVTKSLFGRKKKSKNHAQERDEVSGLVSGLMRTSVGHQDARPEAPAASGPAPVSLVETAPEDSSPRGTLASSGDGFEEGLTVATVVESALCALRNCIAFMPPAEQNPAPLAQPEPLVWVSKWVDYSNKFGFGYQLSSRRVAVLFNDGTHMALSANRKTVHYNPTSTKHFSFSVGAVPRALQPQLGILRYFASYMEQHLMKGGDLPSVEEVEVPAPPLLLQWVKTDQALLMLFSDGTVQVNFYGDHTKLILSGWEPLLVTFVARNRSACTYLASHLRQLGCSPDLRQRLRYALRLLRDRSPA

Compound	IC50 [1] [nM]	IC50 [2] [nM]	IC50 [3] [nM]	IC50 [4] [nM]	IC50 [5] [nM]	IC50 [6] [nM]	% of control [7] [%]	% of control [8] [%]	% of control [9] [%]
CCOc1cc(N2CCC(O)CC2)ccc1Nc1ncc2c(n1)N(C1CCCC1)CCC(=O)N2C	5000	140	61	1600	3100	–	–	–	–
C[C@@H]1CN(c2cc(-c3n[nH]c4ccc(OC5(C)CC5)cc34)ncn2)C[C@H](C)O1 [MLi-2]	–	–	–	–	–	9700	43	0	0

From ChEMBL document CHEMBL5212743, “Selectivity Literature for EUbOPEN Chemogenomics Library wave 3” (2023)
